Source: patent publication US20220401514A1, “ANTIMICROBIAL, BACTERIOPHAGE-DERIVED POLYPEPTIDES AND THEIR USE AGAINST GRAM-NEGATIVE AND ACID-FAST BACTERIA” (CONTRAFECT CORPORATION, priority 2019, published 2022)
Like-named read-outs stand apart in the source and are kept apart here.

Key:
Pseudomonas aeruginosa = assay: microbe, parasite or virus in culture; format: cell-based
Enterobacter cloacae = assay: microbe, parasite or virus in culture; format: cell-based
Summary of the method: (§1)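 Human serum was added to CAA broth for these MIC determinations with peptides.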

Escherichia coli = assay: microbe, parasite or virus in culture; format: cell-based
Summary of the method: as §1

Acinetobacter baumannii = assay: microbe, parasite or virus in culture; format: cell-based
M. smegmatis = assay: 45 hr MIC against M. smegmatis (NTM), Mueller Hinton broth; format: cell-based, Mycobacterium smegmatis
M. fortuitum = assay: 45 hr MIC against M. fortuitum (NTM); format: cell-based, Mycobacterium fortuitum; conditions: M. fortuitum subsp. Fortuitum da Costa Cruz. ATCC 6841
M. avium = assay: 45 hr MIC against M. avium (NTM); format: cell-based, Mycobacterium avium; conditions: M. avium Chester ATCC 700898
M. scrofulaceum = assay: 45 hr MIC against M. scrofulaceum (NTM); format: cell-based, Mycobacterium scrofulaceum; conditions: M. scrofulaceum Prissick and Masson ATCC 19981
M. intracellulare = assay: 45 hr MIC against M. intracellulare (NTM); format: cell-based, Mycobacterium intracellulare; conditions: M. intracellulare (Cuttino and McCabe) Runyon ATCC 13950
Klebsiella pneumoniae [1] = assay: microbe, parasite or virus in culture; format: cell-based
Klebsiella pneumoniae [2] = format: cell-based
Experimental: Determination of Minimal Inhibitory Concentrations (MIC).
Additional MIC testing was performed for several peptides against the ESKAPE pathogens Escherichia coli, Enterobacter cloacae, Klebsiella pneumoniae, and Acinetobacter baumannii, in CAA supplemented with human serum (Table D).

S. maltophilia = assay: MIC against S. maltophilia isolates; format: cell-based, Stenotrophomonas maltophilia; conditions: S. maltophilia isolates (n per peptide in table)
Summary of the method: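 Chp peptides were tested on a set of S. maltophilia isolates (n = isolates per species), with minimal inhibitory concentrations given in μg/mL.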

[3] = Stability assessment in 100% CAA; format: in vitro ADME; set-up: unit not given beside the values
Experimental: Stability was assessed after incubation in 100% human serum at 37° C. after 10 minutes, 1 hour, and 2 hours.
Stability assessment was further conducted in 100% CAA and rabbit serum using the same methodology discussed above.

[4] = tested on: P. aeruginosa strain CFS-1292; assay: MIC in presence and absence of NaCl (140 mM); format: cell-based, Pseudomonas aeruginosa
Experimental: Certain Chp peptides were evaluated over a range of physiological NaCl levels and pH values, and were further evaluated for activity in the presence of various divalent cations.

[5] = tested on: P. aeruginosa strain CFS-1292; assay: MIC at pH 6, pH 7 and pH 8; format: cell-based, Pseudomonas aeruginosa
Experimental: The Chp peptides were further evaluated at varying pH levels. The MIC values were determined at pH 6, pH 7, and pH 8 for 18 different Chp peptides against P. aeruginosa strain CFS-1292. […]

[6] = tested on: P. aeruginosa strain CFS-1292; assay: MIC in presence of divalent cations (calcium chloride, magnesium sulfate); format: cell-based, Pseudomonas aeruginosa
Experimental: Next, Chp peptides were evaluated in the presence of different divalent cations. […]; (2) in the presence of 2 mM calcium chloride alone; (3) in the presence of 1 mM magnesium sulfate alone; and (4) in the presence of both 2 mM calcium chloride and 1 mM magnesium sulfate. […]

[7] = tested on: P. aeruginosa strain CFS-1292; assay: MIC in presence and absence of Survanta pulmonary surfactant; format: cell-based, Pseudomonas aeruginosa
[8] = P. aeruginosa isolates (n per peptide in table)
[9] = E. cloacae isolates (n per peptide in table)
[10] = E. coli isolates (n per peptide in table)
[11] = K. pneumoniae isolates (n per peptide in table)
[12] = A. baumannii isolates (n per peptide in table)

NC[C@H]1O[C@H](O[C@H]2[C@H](O)[C@@H](O[C@H]3O[C@H](CO)[C@@H](O)[C@H](N)[C@H]3O)[C@H](N)C[C@@H]2N)[C@H](N)C[C@@H]1O [tobramycin, reference compound]
4 µg/mL: MIC (M. fortuitum; Mycolicibacterium fortuitum, ATCC6841, 45 h, read-out: 45 hr MIC)
0.25 µg/mL: MIC (M. scrofulaceum; Mycobacterium scrofulaceum, ATCC19981, 45 h, read-out: 45 hr MIC) | MIC (M. intracellulare; Mycobacterium intracellulare, ATCC13950, 45 h, read-out: 45 hr MIC)
< 0.5 µg/mL: MIC (Pseudomonas aeruginosa; Pseudomonas aeruginosa, ATCC27853, P. aeruginosa (ATCC 27853), control agents of Table 8, read-out: MIC (in brackets beside MBEC)) | MIC (Enterobacter cloacae; Enterobacter cloacae, CCUG63317, E. cloacae (CCUG 63317), control agents of Table 8, read-out: MIC (in brackets beside MBEC)) | MIC (Escherichia coli; Escherichia coli, ATCC25922, E. coli (ATCC 25922), control agents of Table 8, read-out: MIC (in brackets beside MBEC)) | MIC (Escherichia coli; Escherichia coli, ATCC35329, E. coli (ATCC 35329), control agents of Table 8, read-out: MIC (in brackets beside MBEC)) | MIC (Escherichia coli; Escherichia coli, E. coli (EC2), control agents of Table 8, read-out: MIC (in brackets beside MBEC)) | MIC (Acinetobacter baumannii; Acinetobacter baumannii, ATCCBAA747, A. baumanni (ATCC BAA-747), control agents of Table 8, read-out: MIC (in brackets beside MBEC)) | MIC (Klebsiella pneumoniae [1]; Klebsiella pneumoniae, ATCC700603, K. pneumoniae (ATCC 700603), control agents of Table 8, read-out: MIC (in brackets beside MBEC)) | MIC (Klebsiella pneumoniae [1]; Klebsiella pneumoniae, read-out: MIC (in brackets beside MBEC))
0.125 µg/mL: MIC (M. smegmatis; Mycolicibacterium smegmatis, MC^2155, 45 h, read-out: 45 hr MIC, M. smegmatis MC^2 155, Run #2) | MIC (M. avium; Mycobacterium avium, ATCC700898, 45 h, read-out: 45 hr MIC)

MVRRRRLRRRISRRIFRRTVARVGRRRRSFRGGIRF [Chp1]
2 to 4 µg/mL: MIC Range (Enterobacter cloacae; [9])
0.5: MIC (100% CAA) [3]
2 µg/mL: MIC50 (Pseudomonas aeruginosa; [8]) | MIC50 (Enterobacter cloacae; [9]) | MIC50 (Escherichia coli; [10]) | MIC (Escherichia coli; Escherichia coli ATCC 25922, CAA supplemented with human serum) | MIC50 (Klebsiella pneumoniae [2]; [11]) | MIC100 (Klebsiella pneumoniae [2]; [11]) | MIC50 (Acinetobacter baumannii; [12]) | MIC (Acinetobacter baumannii; Acinetobacter baumannii ATCC BAA 747, CAA supplemented with human serum) | MIC50 (S. maltophilia) | MIC ([6]; CAA media + 2 mM CaCl2) | MIC ([7]; CAA media + 0.19 mg/mL Survanta) | MIC ([7]; CAA media + […] Survanta)
4 µg/mL: MIC (Pseudomonas aeruginosa; P. aeruginosa (ATCC 15152, abscess in middle ear), RSC 1110, CAA without human serum) | MIC (Pseudomonas aeruginosa; P. aeruginosa (ATCC 15692, infected wound), RSC 489, CAA without human serum) | MIC100 (Pseudomonas aeruginosa; [8]) | MIC100 (Enterobacter cloacae; [9]) | MIC (Enterobacter cloacae; Enterobacter cloacae ATCC 13047, CAA supplemented with human serum) | MIC100 (Escherichia coli; [10]) | MIC100 (Acinetobacter baumannii; [12]) | MIC100 (S. maltophilia) | 45 hr MIC (M. avium) | 45 hr MIC (M. scrofulaceum) | 45 hr MIC (M. intracellulare)
1 to 8 µg/mL: MIC Range (S. maltophilia)
1: Fold change in MIC ([4]; CAA + 140 mM NaCl versus CAA without added NaCl)
0.5 µg/mL: MIC ([5]; pH 6)
8 µg/mL: MIC (Pseudomonas aeruginosa; P. aeruginosa 453 (Human clinical isolate, HSS), RSC 1292, CAA without human serum) | MIC (Pseudomonas aeruginosa; P. aeruginosa (ATCC 14213, human hip wound), RSC 1111, CAA without human serum) | MIC (Pseudomonas aeruginosa; P. aeruginosa (ATCC 15692, infected wound), RSC 1115, CAA without human serum) | MIC (Pseudomonas aeruginosa; P. aeruginosa (ATCC 17646, human liver abscess), RSC 1109, CAA without human serum) | MIC (Pseudomonas aeruginosa; P. aeruginosa (ATCC 19142, tracheobronchial secretion), RSC 1108, CAA without human serum) | MIC (Pseudomonas aeruginosa; P. aeruginosa (ATCC 25102, bacteriophage host), RSC 1114, CAA without human serum) | MIC (Pseudomonas aeruginosa; P. aeruginosa (ATCC 27853, MIC control strain), RSC 815, CAA without human serum) | MIC (Pseudomonas aeruginosa; P. aeruginosa (ATCC BAA-27, lab strain), RSC 1113, CAA without human serum) | MIC (Pseudomonas aeruginosa; P. aeruginosa (PAO1, alternate source, HER1018), RSC 490, CAA without human serum) | MIC (Enterobacter cloacae; Enterobacter cloacae (ATCC 13047, MIC control strain), RSC 1240, CAA without human serum) | MIC (Escherichia coli; E. coli (ATCC 25922, MIC control strain), RSC 813, CAA without human serum) | MIC (Escherichia coli; E. coli (HM346, colon, Crohn's disease), RSC 1212, CAA without human serum) | MIC (Acinetobacter baumannii; Acinetobacter baumannii (clinical isolate HSS), RSC 30, CAA without human serum) | MIC (Acinetobacter baumannii; Acinetobacter baumannii (clinical isolate HSS), RSC 32, CAA without human serum) | 45 hr MIC (M. smegmatis; M. smegmatis MC^2 155, Run #1) | MIC (Klebsiella pneumoniae [1]; Klebsiella sp. (HM-44; colon, Crohn's disease), RSC 1139, CAA without human serum) | MIC (Klebsiella pneumoniae [1]; Klebsiella spp. (HM-223; gut of Crohn's disease patient), RSC 1131, CAA without human serum)
16 µg/mL: 45 hr MIC (M. smegmatis; M. smegmatis MC^2 155, Run #2) | 45 hr MIC (M. fortuitum) | MIC (Klebsiella pneumoniae [1]; Klebsiella pneumoniae (ATCC 10031, MIC control strain), RSC 814, CAA without human serum) | MIC (Klebsiella pneumoniae [1]; Klebsiella pneumoniae (g2-3 HM35K), RSC 1138, CAA without human serum)
1 to 4 µg/mL: MIC Range (Pseudomonas aeruginosa; [8]) | MIC Range (Escherichia coli; [10]) | MIC Range (Klebsiella pneumoniae [2]; [11]) | MIC Range (Acinetobacter baumannii; [12])
1 µg/mL: MIC (Klebsiella pneumoniae [2]; Klebsiella pneumoniae HM-44, CAA supplemented with human serum) | MIC, CAA + 140 mM NaCl ([4]; CAA + 140 mM NaCl, P. aeruginosa CFS-1292) | MIC, CAA (no added NaCl) ([4]; CAA, no added NaCl, P. aeruginosa CFS-1292) | MIC ([5]; CAA media (pH 7)) | MIC ([5]; pH 7) | MIC ([5]; pH 8) | MIC ([6]; CAA media + 1 mM MgSO4) | MIC ([6]; CAA media + + 1 mM MgSO4) | MIC ([6]; CAA media alone) | MIC ([7]; CAA media alone)
